SMILES strings stand for the structures. “Also recorded” adds a separate entry of the source.

Assay [1] has as its target T1, T. brucei GlcNAc-PI de-N-acetylase (Trypanosoma brucei brucei, UniProt Q8I8A5). The assay is described as follows: Substrate recognition (de-N-acetylation turnover) in T. brucei cell-free system, LC-MS/MS assay. It counts as biochemical. The conditions noted are these: for Turnover: conversion of N-acetylated compound to free amine, 37 °C, 1 h, ND = turnover not detected, for 53 measured via d6-Ac2O derivatisation of the free amine; for Relative turnover: turnover relative to α-D-GlcpNAc-PI (1); for Substrate activity: recognised and processed (in words): N-acetylated analogue as substrate of the de-N-acetylase. As for the experimental part:
[8],[10] The N-acetylated analogues of these compounds were prepared as previously described to give compounds 47–53 (Fig. 3).
Using LC-MS/MS, multiple reaction monitoring of characteristic transitions for the N-acetylated and corresponding amine form of each compound was used to directly measure the rate of conversion of the N-acetylated compound to the free amine (Table 1). As no suitable transition was identified for the amine form of 13, the enzymatic turnover was accessed by reacting any free amine formed with d 6-Ac2O, and measuring the formation of the d 3-N-acetylated form by LC-MS/MS.
The synthesis of 1-D-6-O-(2-amino-2-deoxy-α-D-glucopyranosyl)-myo-inositol 1-(octadecyl phosphate), (4, α-D-GlcpNH2-IPC18), [15] has been described previously. The corresponding N-acetyl derivate α-D-GlcpNAc-IPC18 (3) was prepared by treatment with acetic anhydride, [13] and the concentration of stock solutions determined by measurement of the inositol content by selected ion-monitoring GC-MS. Bloodstream form Trypanosome brucei (variant MITat1.4) were isolated and membranes (cell-free system) prepared as described previously and stored at –80 °C.
Substrate recognition assays were performed using 500 pmol of α-D-GlcpNAc-PI (1) in incorporation buffer (25 mM Tris pH 8.0, 50 mM KCl, 50 mM MnCl2) and varying amounts of trypanosome cell-free system (0–15 × 10^6 cell equivalents per assay) in 96-well plates containing 100 μL final volume, and incubated at 37 °C for 1 h. The reaction was quenched and the glycolipids enriched and analyzed by LC-MS/MS as described below.
(§1) Enrichment of glycolipids was performed in a 96-well plate format. Reactions were quenched by addition of 200 μL of 5% propan-1-ol, 5 mM NH4OAc, and the glycolipids were bound to C18 resin (50 mg Isolute Array cartridge), washed three times with 200 μL 5% propan-1-ol, 5 mM NH4OAc and eluted with 100 μL 40% propan-1-ol, 5 mM NH4OAc into a 96-well collection plate.
Prior to subsequent analysis, compound 13 was dried under nitrogen, resuspended in MeOH (100 μL) and any free amine reacted with excess d 6-Ac2O (1.5 μL) in the presence of pyridine (10 μL) for 15 min. The reaction was quenched with water (50 μL), dried under nitrogen and resuspended in 100 μL 40% propan-1-ol, 5 mM NH4OAc.
(§2) Glycolipids were analyzed by liquid chromatography coupled to an electrospray tandem mass spectrometer (LC-MS/MS). Samples (40 μL) were injected directly from a 96-well plate onto a 10 × 1 mm C18 column (ACE, […]) and then eluted using a binary gradient of 5–80% propan-1-ol in 5 mM NH4OAc (Dionex Ultimate 3000). The gradient consisted of 2 min 0% B, 2–4 min 0–100% B, 4–8 min 100%, 8–9 min 100–0% B, 9–10 min 0% B where buffer A consisted of 5% propan-1-ol, 5 mM NH4OAc and buffer B 80% propan-1-ol, 5 mM NH4OAc. The glycolipids were analysed on an electrospray triple quadrapole mass spectrometer (Micromass Quattro Ultima) in multiple reaction monitoring mode.
For each pseudodisaccharide analogue (7–12), standards of the N-acetylated compound and corresponding free amine were analyzed separately in order to identify unique transitions for use in subsequent multiple reaction monitoring experiments (Table 1). The ratio of the integrals for these transitions was used to calculate the percentage of substrate conversion to product in a given sample. For compound 13, standards of the N-acetylated compound and the d 3-N-acetylated form were analyzed separately and found to produce a common fragment for use in subsequent multiple reaction monitoring experiments.

The target in assay [2] is T1, T. brucei GlcNAc-PI de-N-acetylase. Kind of assay: Inhibition of turnover of α-D-GlcpNAc-IPC18 (3) in T. brucei cell-free system, LC-MS/MS assay. It counts as biochemical. Conditions: inhibition of turnover of 3; tested at 100 μM. As to the method: Since the majority of the compounds were not processed by the T. brucei GlcNAc-PI de-N-acetylase, we tested their ability to inhibit the turnover of the α-D-GlcpNAc-IPC18 (3) substrate by the T. brucei GlcNAc-PI de-N-acetylase in the LC-MS/MS assay.
Inhibition assays were performed in 96-well plates in 100 μL final volume, with 1% v/v DMSO with or without inhibitor. Trypanosome cell-free system (2.5 × 10^6 cell equivalents per assay) in incorporation buffer were added to wells containing 500 pmol α-D-GlcpNAc-IPC18 (3) with or without inhibitor and incubated at 37 °C for 1 h. The reaction was quenched and the glycolipids enriched and analyzed by LC-MS/MS as described below.
as §1, §2
For inhibition assays, the turnover of the substrate α-D-GlcpNAc-IPC18 (3) was used to calculate the percentage of substrate conversion to product in a given sample. Inhibitor IC50 values were calculated using a four-parameter fit of eight-point potency curves derived from three independent experiments, and are quoted with a standard deviation.

Assay [3] has the same target. Conditions: previous studies; cited from earlier work.
A further assay deals with T. brucei GPI pathway. Kind of assay: Trypanosome cell-free system with [3H]-mannose labelling (HPTLC, fluorography). It is filed as biochemical, Trypanosoma brucei. From the text:
The ability of 49 and 48 to act as a substrate and inhibitor, respectively, of the T. brucei GPI pathway was confirmed using the trypanosome cell-free system with [^3H]-mannose labelling (Fig. 5). […] As these mannosylated compounds lack the inositol 2-OH group they cannot undergo inositol acylation, a prerequisite for the transfer of ethanolamine, and thus are not processed past the Man3-species.
Fig. 5 The trypanosome GPI biosynthesis in the cell-free system. A. The T. brucei cell-free system was incubated without exogenous substrate, with 1, α-D-GlcpNAc-PI (10 μM), or with 49 (100 μM) in the presence of GDP-[^3H]Mannose to stimulate the production of radiolabelled mannosylated GPI intermediates. B. Inhibition of the turnover of 3, α-D-GlcpNAc-IPC18 (10 μM), in the presence of 48 (100 μM). Glycolipid products were extracted, separated by high-performance thin-layer chromatography, and visualised by fluorography. DPM – dolichol-phosphate-mannose, M1 – Man1 species, M2 – Man2 species, M3 – Man3 species, A′ – EtNPMan3 species, where the identity and migration of the species depends on the glycolipid substrate employed.
The formation of GPI precursors is monitored by following the incorporation of [^3H]-mannose and then they were analysed using […] and fluorography as described previously.

T1 sequence (Q8I8A5 entry or part of it): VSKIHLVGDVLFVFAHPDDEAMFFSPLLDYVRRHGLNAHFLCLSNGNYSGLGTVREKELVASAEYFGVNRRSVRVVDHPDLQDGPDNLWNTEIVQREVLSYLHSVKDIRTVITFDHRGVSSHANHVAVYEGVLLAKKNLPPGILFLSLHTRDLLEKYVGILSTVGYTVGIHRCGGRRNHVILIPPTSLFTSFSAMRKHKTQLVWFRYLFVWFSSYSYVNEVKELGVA

In assay [1], `CCCCCCCCCCCCCCCCCCOP(=O)(O)OC1C(O)C(O)C(O)C(O)C1OC1OC(CO)C(O)C(O)C1NC(C)=O` (stereo not shown) [Compound 3, reference compound] came in with a Turnover of 27.0 ± 6.0 pmol/10^6 cells equiv and a Relative turnover of 450%.
Take `CCCCCCCCCCCCCCCCCCOP(=O)(O)O[C@@H]1CCCC[C@H]1OCC(CO)NC(C)=O` (stereo partly shown) [Compound 53]: the “Substrate activity: recognised and processed (in words)” value (“Substrate activity” for short) in assay [1] is listed as “inactivity”. In addition, in assay [2], the “Inhibitory activity (in words)” value is “inactivity”.
As to `CCCCCCCCCCCCCCCC(=O)OC[C@H](COP(=O)(O)O[C@H]1[C@@H](O)[C@@H](O)[C@H](O)[C@@H](O)[C@@H]1O[C@H]1O[C@H](CO)[C@@H](O)[C@H](O)[C@H]1NC(C)=O)OC(=O)CCCCCCCCCCCCCCC` [Compound 5], in assay [3], the “Recognition and processing by the enzyme (in words)” value (“Recognition and processing” for short) was “recognise and process”.
Consider `CCCCCCCCCCCCCCCCCCS(=O)(=O)N[C@@H]1CCCC[C@H]1O[C@H]1O[C@H](CO)[C@@H](O)[C@H](O)[C@H]1NC(C)=O` [Compound 52], for which, in assay [1], the “Substrate activity” value is given as “inability”. Besides, the “Inhibitory activity (in words)” value in assay [2] was “inability”.
Regarding `CCCCCCCCCCCCCCCCCCOP(=O)(O)O[C@@H]1CCCC[C@H]1O[C@@H]1O[C@H](CO)[C@@H](O)[C@H](O)[C@H]1NC(C)=O` [Compound 48], the “Inhibitory activity (in words)” value in assay [2] was “act as inhibitors”. For the same molecule, the “Inhibition of priming of the cell-free system with 3” value in the assay with T. brucei GPI pathway (3 (α-D-GlcpNAc-IPC18) at 10 μM, inhibitor at 100 μM) is on record as “efficiently prevented”.
As to `CCCCCCCCCCCCCCCC(=O)OCC(COP(=O)(O)OC1C(O)C(O)C(O)C(O)C1OC1OC(CO)C(O)C(O)C1NC(C)=O)OC(=O)CCCCCCCCCCCCCCC` [Compound 1, 1-D-(2-acetamido-2-deoxy-α-D-glucopyranosyl)-myo-inositol 1-(1,2-di-O-hexadecanoyl-sn-glycerol 3-phosphate), reference compound], in assay [1], the Turnover is 6.1 ± 0.9 pmol/10^6 cells equiv and the Relative turnover came out at 100%. The “Recognition and processing” value in assay [3] was “recognised and processed”.
Consider `CCCCCCCCCCCCCCCCCCS(=O)(=O)N[C@@H]1CCCC[C@H]1O[C@@H]1O[C@H](CO)[C@@H](O)[C@H](O)[C@H]1NC(C)=O` [Compound 51], for which the “Substrate activity” value in assay [1] is “inability”. Moreover, the “Inhibitory activity (in words)” value in assay [2] is reported as “inability”.
On to `CCCCCCCCCCCCCCCC(=O)OC[C@H](COP(=O)(O)O[C@@H]1CCCC[C@H]1O[C@@H]1O[C@H](CO)[C@@H](O)[C@H](O)[C@H]1NC(C)=O)OC(=O)CCCCCCCCCCCCCCC` [Compound 50], for which the “Substrate activity” value in assay [1] is reported as “neither a substrate nor an inhibitor”. Moreover, the “Inhibitory activity (in words)” value in assay [2] was “neither a substrate nor an inhibitor”.
With `CCCCCCCCCCCCCCCCCCOP(=O)(O)O[C@@H]1CCCC[C@H]1O[C@H]1O[C@H](CO)[C@@H](O)[C@H](O)[C@H]1NC(C)=O` [Compound 47], the “Inhibitory activity (in words)” value in assay [2] is “act as inhibitors”.
As for `CCCCCCCCCCCCCCCC(=O)OC[C@H](COP(=O)(O)O[C@@H]1CCCC[C@H]1O[C@H]1O[C@H](CO)[C@@H](O)[C@H](O)[C@H]1NC(C)=O)OC(=O)CCCCCCCCCCCCCCC` [Compound 49], in assay [1], the “Substrate activity” value is “both recognised and processed”; the Turnover is reported as 1.3 ± 0.3 pmol/10^6 cells equiv; the Relative turnover amounted to 22%. Further, in the assay with T. brucei GPI pathway (49 at 100 μM, GDP-[3H]Mannose, bands sensitive to jackbean α-mannosidase), the “Formation of mannosylated GPI intermediates on priming the cell-free system” value was “three bands corresponding to the addition of 1–3 mannose residues”.
Take `CCCCCCCCCCCCCCCC(=O)OC[C@H](COP(=O)(O)O[C@@H]1[C@H](O)[C@H](O)[C@@H](O)[C@H](O)[C@H]1O[C@@H]1O[C@H](CO)[C@@H](O)[C@H](O)[C@H]1NC(C)=O)OC(=O)CCCCCCCCCCCCCCC` [Compound 6]: the “Recognition and processing” value in assay [3] is “recognised and processed; also recorded: recognise and process”.

These data come from article PMC4326964, “Probing the substrate specificity of Trypanosoma brucei GlcNAc-PI de-N-acetylase with synthetic substrate analogues” (Organic & Biomolecular Chemistry, 2014).
